Assay results reported in ChEMBL document CHEMBL1151336, “Recent Biosynthetic Studies on Antibiotics” (J Nat Prod, 1980).
≈ marks a conversion by molar mass, not a printed value.

Experiments:
Rous sarcoma virus = assay: Antiviral activity against Rous sarcoma virus at 0.5 mg/kg; type: functional
Bacillus subtilis = assay: Antibacterial activity against Bacillus subtilis; type: functional
[1] = Toxicity in orally dosed mouse; type: organism-based; details: in vivo, po
KB = assay: Cytotoxicity against human KB cells; type: functional

SMILES: CC(=O)c1cccc(N[C@H]2[C@H](N)[C@@](NC(=O)N(C)C)([C@H](C)O)[C@@](C)(O)[C@@]2(O)COC(=O)c2c(C)cccc2O)c1 [PACTAMYCIN]
- inhibition in vivo at 0.5 mg/kg (Rous sarcoma virus): 30%
- MIC (Bacillus subtilis): 0.8 µg/mL (≈ 1.43 µM)
- LD50 [1]: 10.7 mg/kg
- MIC (KB): 0.003 µg/mL (≈ 0.00537 µM)
